In US20250114325A1 (JIANGSU PROVINCE HOSPITAL OF CHINESE MEDICINE, priority 2022, published 2025):

Tests used:
Assay type in all cases: cell-based, human
Hela cells [1] = experiment: Cell proliferation experiment (CCK-8 cell viability); details: single agent, 24 h, 48 h, 72 h, dose and time-dependent
Experimental: (§1) Assay of cell viability by CCK-8 kit: Cells (cell density: 1000 cells/well) were inoculated in a 96-well plate and cultured for 24 hours. […] Cell proliferation was detected using Cell Counting Kit-8 (CCK-8).

SiHa cells [2] = experiment: as above; details: single agent, 24 h, 48 h, 72 h, dose and time-dependent
Experimental: as §1

Hela cells [3] = experiment: Annexin V-AF647/PI flow cytometry apoptosis assay; details: added to Atr-I (BzATP 100 μM or JNJ 20 μM); 48 h
Experimental: (§2) The cell lines selected were human cervical cancer Hela (HPV18+) and Siha (HPV16+) cell lines.
(§3) The proportion of apoptotic cells was measured using the Annexin V-AF647/PI Apoptosis Kit (E-CK-A213; Elabscience Biotechnology, Wuhan, China). The cells in logarithmic growth phase were used and seeded in a culture bottle at a suspension density of 1×10^6 cells/mL, and then cultured in a CO2 incubator for 24 h. […] Subsequently, the cells were re-suspended in 500 μL of the binding buffer. After adding 5 μL of Annexin V-AF647 and 5 μL of PI to the cell suspension, respectively, the cell cycle was assayed using FACSCalibur flow cytometry (BD Biosciences, San Jose, CA, USA). The data were analyzed with FlowJo software (FlowJo, Ashland, OR, USA).

SiHa cells [4] = experiment: Annexin V-AF647/PI flow cytometry apoptosis assay; details: added to Atr-I (BzATP 100 μM or JNJ 20 μM); 48 h
Experimental: as §2, §3

## Nc1ncnc2c1ncn2[C@@H]1O[C@H](COP(=O)(O)OP(=O)(O)OP(=O)(O)O)[C@@H](OC(=O)c2ccc(C(=O)c3ccccc3)cc2)[C@H]1O [BzATP]
Hela cells [1]
  inhibition of growth of Hela cells: significantly inhibited the growth
SiHa cells [2]
  inhibition of growth of SiHa cells: significantly inhibited the growth
Hela cells [3]
  effect on Atr-I-induced apoptosis in Hela cells: inhibited Atr-I-induced apoptosis in Hela cells
SiHa cells [4]
  effect on Atr-I-induced apoptosis in SiHa cells: had no effect on Atr-I-induced apoptosis in SiHa cells
